Results as given in patent US6218393A, “Anthranilic acid derivatives as multi drug resistance modulators” (priority 1997, dated 2001).
One block for each compound: values may come before it.

Tests used:
AR 1.0 cells [1] = test: Drug accumulation assay: daunorubicin accumulation in AR 1.0 cells; assay type: cell-based; conditions: Mus musculus, 100% = accumulation with verapamil 100 μM, 1 hr, 37° C.
Method in brief: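 Daunorubicin accumulation was measured in cells plated 48 h beforehand. These were AR 1.0 cells, an MDR-resistant derivative of mouse EMT6 mammary carcinoma, cultured at 37 °C in 5% CO2 in RPMI 1640 plus 10% foetal calf serum and 2 mM glutamine.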

AR 1.0 cells [2] = test: Potentiation index with doxorubicin titration; assay type: cell-based, mouse; conditions: for Potentiation Index at RMA concentration 50 nM: Table C1, RMA 50 nM
Method in brief: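 Doxorubicin IC50 in AR 1.0 cells (MDR subline of EMT6 mouse mammary carcinoma) determined by sulphorhodamine B after 4-day culture across 0.263 nM-17.24 μM, with and without a fixed dose of test compound; their ratio gives the PI.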

2780AD cells = test: Potentiation of toxicity of various cytotoxic agents, 2780AD cell line; assay type: cell-based; conditions: Taxol; for Potentiation Index at RMA concentration 10 nM: RMA 10 nM; for Potentiation Index at RMA concentration 30 nM: RMA 30 nM; for Potentiation Index at RMA concentration 50 nM: RMA 50 nM
Protocol: (§1) (b) Cells were cultured for four days with a titration of doxorubicin (0.263 nM-17.24 μM) in the presence of a fixed concentration of each compound. Proliferation was quantified as described by Skehen et al, loc cit. The IC50 (concentration required to reduce proliferation to 50% of the untreated controls) for doxorubicin alone and with each compound were derived and used to calculate the potentiation index (PI): [formula]
(§2) The potentiation indices of a selection of compounds using a variety of cell lines and a variety of cytotoxics other than doxorubicin were measured following the protocol described above for doxorubicin, and the results are shown in Table D.

H69/LX4 cells = test: Potentiation of toxicity of various cytotoxic agents, H69/LX4 cell line; assay type: cell-based; conditions: Vincristine; for Potentiation Index at RMA concentration 10 nM: RMA 10 nM; for Potentiation Index at RMA concentration 30 nM: RMA 30 nM; for Potentiation Index at RMA concentration 50 nM: RMA 50 nM
Protocol: as §1, §2

AR 1.0 cells [3] = test: Potentiation of toxicity of various cytotoxic agents, AR 1.0 cell line; assay type: cell-based, mouse; conditions: for Potentiation Index at RMA concentration 10 nM: RMA 10 nM; for Potentiation Index at RMA concentration 30 nM: RMA 30 nM; for Potentiation Index at RMA concentration 50 nM: RMA 50 nM
Protocol: The EMT6 mouse mammary carcinoma cell line and the MDR resistant subline AR 1.0 were cultured in RPMI 1640 medium containing 10% foetal calf serum and 2 mM glutamine at 37° C. in 5% CO2. Cells were passaged between 1 in 200 and 1 in 2000 in the case of the parental cell line and between 1 in 20 and 1 in 200 in the case of the MDR resistant subline, after trypsinisation (0.25% trypsin, 0.2 gl^-1, EDTA).
as §1, §2

MDR cells = conditions: in vitro and in vivo; cited from earlier work
AR 1.0 cells [4] = test: Potentiation of doxorubicin toxicity: proliferation assay (sulphorhodamine B); assay type: cell-based, mouse; conditions: Mus musculus, 96 h; compound alone; four day proliferation; read-out: Compound Toxicity (IC50)
From the text: (a) Selected compounds of formula (I) were examined for their ability to potentiate the toxicity of doxorubicin in AR 1.0 cells.

mdr la P-gp gene = conditions: cited from earlier work

Compound: COc1cc2c(cc1OC)CN(CCc1ccc(NC(=O)c3sccc3NC(=O)c3cnc4ccccc4c3)cc1)CC2 [compound 9594, Quinoline-3-carboxylic acid (2-{4-[2-(6,7-dimethoxy-3,4-dihydro-1H-isoquinolin-2-yl)-ethyl]-phenylcarbamoyl}-thiophen-3-yl)-amide]
IC50 (AR 1.0 cells [1]): 87 nM
Potentiation Index at RMA concentration 10 nM (AR 1.0 cells [2]; Table C1, RMA 10 nM): 11
Potentiation Index at RMA concentration 30 nM (AR 1.0 cells [2]; Table C1, RMA 30 nM): 159
Potentiation Index at RMA concentration 50 nM (AR 1.0 cells [2]): 307
Potentiation Index at RMA concentration 100 nM (AR 1.0 cells [2]; Table C1, RMA 100 nM): 601
Potentiation Index at RMA concentration 10 nM (2780AD cells): 18
Potentiation Index at RMA concentration 30 nM (2780AD cells): 425
Potentiation Index at RMA concentration 50 nM (2780AD cells): 1126
Potentiation Index at RMA concentration 10 nM (H69/LX4 cells): 2
Potentiation Index at RMA concentration 30 nM (H69/LX4 cells): 79
Potentiation Index at RMA concentration 50 nM (H69/LX4 cells): 356
Potentiation Index at RMA concentration 10 nM (AR 1.0 cells [3]; Taxol): 50
Potentiation Index at RMA concentration 30 nM (AR 1.0 cells [3]; Taxol): 308
Potentiation Index at RMA concentration 50 nM (AR 1.0 cells [3]; Taxol): 407

Compound: COc1ccc(CCN(C)CCCC(C#N)(c2ccc(OC)c(OC)c2)C(C)C)cc1OC (stereo not shown) [Verapamil]
sensitisation of MDR cells to Vinca alkaloids (MDR cells): shown to sensitise MDR cells to Vinca alkaloids in vitro and in vivo

Compound: COc1cc2c(cc1OC)CN(CCc1ccc(NC(=O)c3cc(OC)c(OC)cc3NC(=O)c3cnc4ccccc4c3)cc1)CC2 [compound 9576, Quinoline-3-carboxylic acid (2-{4-[2-(6,7-dimethoxy-3,4-dihydro-1H-isoquinolin-2-yl)-ethyl]-phenylcarbamoyl}-4,5-dimethoxy-phenyl)-amide]
IC50 (AR 1.0 cells [1]): 64 nM
IC50 (AR 1.0 cells [4]): 930 nM
Potentiation Index at RMA concentration 10 nM (AR 1.0 cells [2]; Table C2, RMA 10 nM): 78
Potentiation Index at RMA concentration 30 nM (AR 1.0 cells [2]; Table C2, RMA 30 nM): 225
Potentiation Index at RMA concentration 100 nM (AR 1.0 cells [2]; Table C2, RMA 100 nM): 280
Potentiation Index at RMA concentration 10 nM (AR 1.0 cells [3]; Etoposide): 26
Potentiation Index at RMA concentration 30 nM (AR 1.0 cells [3]; Etoposide): 45
Potentiation Index at RMA concentration 50 nM (AR 1.0 cells [3]; Etoposide): 51

Compound: ivermectin
increased sensitivity of mice deficient in mdr la P-gp gene (mdr la P-gp gene): up to 100 fold

Continued, in another order:

IC50 (AR 1.0 cells [1]): 132 nM
Compound: COc1cc2c(cc1OC)CN(CCc1ccc(NC(=O)c3cc(N(C)C)ccc3NC(=O)c3cnc4ccccc4n3)cc1)CC2 [compound 9596, Quinoxaline-2-carboxylic acid (2-{4-[2-(6,7-dimethoxy-3,4-dihydro-1H-isoquinolin-2-yl)-ethyl]-phenylcarbamoyl}-4-dimethylamino-phenyl)-amide]
Potentiation Index at RMA concentration 10 nM (AR 1.0 cells [2]; Table C1, RMA 10 nM): 2.68
Potentiation Index at RMA concentration 30 nM (AR 1.0 cells [2]; Table C1, RMA 30 nM): 44
Potentiation Index at RMA concentration 50 nM (AR 1.0 cells [2]): 131
Potentiation Index at RMA concentration 100 nM (AR 1.0 cells [2]; Table C1, RMA 100 nM): 354
Potentiation Index at RMA concentration 10 nM (2780AD cells): 3.5
Potentiation Index at RMA concentration 30 nM (2780AD cells): 160
Potentiation Index at RMA concentration 50 nM (2780AD cells): 743
Potentiation Index at RMA concentration 10 nM (H69/LX4 cells): 1
Potentiation Index at RMA concentration 30 nM (H69/LX4 cells): 2
Potentiation Index at RMA concentration 50 nM (H69/LX4 cells): 158

IC50 (AR 1.0 cells [1]): 87 nM
Compound: COc1cc2c(cc1OC)CN(CCc1ccc(NC(=O)c3sccc3NC(=O)c3cnc4ccccc4n3)cc1)CC2 [compound 9597, Quinoxaline-2-carboxylic acid (2-{4-[2-(6,7-dimethoxy-3,4-dihydro-1H-isoquinolin-2-yl)-ethyl]-phenylcarbamoyl}-thiophen-3-yl)-amide]
Potentiation Index at RMA concentration 10 nM (AR 1.0 cells [2]; Table C1, RMA 10 nM): 80
Potentiation Index at RMA concentration 30 nM (AR 1.0 cells [2]; Table C1, RMA 30 nM): 382
Potentiation Index at RMA concentration 50 nM (AR 1.0 cells [2]): 551
Potentiation Index at RMA concentration 100 nM (AR 1.0 cells [2]; Table C1, RMA 100 nM): 878
Potentiation Index at RMA concentration 10 nM (2780AD cells): 110
Potentiation Index at RMA concentration 30 nM (2780AD cells): 1427
Potentiation Index at RMA concentration 50 nM (2780AD cells): 2070
Potentiation Index at RMA concentration 10 nM (H69/LX4 cells): 1
Potentiation Index at RMA concentration 30 nM (H69/LX4 cells): 41
Potentiation Index at RMA concentration 50 nM (H69/LX4 cells): 44
